Measured values as given in patent US5587397A, “Reduction of elevated blood lactate using twice-daily dichloroacetate” (Cypros Pharmaceutical Corporation, priority 1995, dated 1996).
Entries after “also recorded” stand apart in the source; their conditions may differ. Where two headings read alike, the source gives them in different places.

What was measured:
[1] = dogs; Lukas et al 1980, Ribes et al 1979; cited from earlier work
[2] = DCA clearance from the blood of human subjects after intravenous infusion; assay type: in vivo
Method: (§1) Teflon venous catheters were placed in both forearms of all subjects. One, for drug administration, was left in place for 10 hours. The other, for blood sampling, was left in place for about 30 hours. Both venous cannulae were regularly flushed with a heparin-saline solution to avoid any risk of clogging or clotting. When blood was sampled, the first-drawn fluid was discarded, so that blood samples were not contaminated with the heparin-saline solution.
(§2) Sodium dichloroacetate (NaDCA; purchased in powdered form from TCI America, Inc., Portland, Oreg.) was dissolved in saline solution to provide a 10% sterile solution (i.e., 10 g of NaDCA in 100 ml solution) at a contract lab. The vials containing 10% solution were shipped to the study site, in Indiana, and then diluted to form approximately 2% solutions in intravenous drip bags. Exact concentrations depended to some extent on the weight of each patient; all concentrations were within 20 % of isotonic levels. A 2% solution was administered through one cannula into each test subject over a period of 30 minutes, at a dosage of 30 mg/kg (i.e, 30 milligrams of NaDCA salt per kilogram of body weight). The average total weight of NaDCA infused into each patient was about 2.26±0.54 g; total volume of solution was about 100 ml. […] Nine subjects received a single infusion of DCA, and nine received the saline placebo.
(§3) Samples of venous blood from the other cannula (in the opposite forearm) were taken, before and several times periodically after the intravenous infusion. The infusions were number-coded, and all solutions (both active and placebo) were colorless; therefore, this was a double-blinded study.
Blood samples were collected into tubes containing sodium heparin, and spun at 64 G (i.e., 64 times normal gravity) for 10 minutes, to remove blood cells. The supernatant was then deproteinized, using 6% perchloric acid; various other agents, such as acetonitrile, could alternately be used if desired. […]

[3] = Side effects of DCA infusion in healthy volunteers; assay type: in vivo, human; details: 100 mg/kg infused within 30 minutes
Method: Accordingly, to ensure that this effect would not occur when DCA was administered, an initial dose of 100 mg/kg NaDCA was infused into test subjects, and a second dose of 50 mg/kg was infused 8 hours later.
The dose of 100 mg/kg is the highest dose so far administered to human beings within 30 minutes. […] This was not considered clinically significant and needed no treatment; it would be relatively unimportant in most of the pathological states that are proper subjects for treatment using DCA. However, the sedation side effect was regarded as creating a practical limit (100 mg/kg infused in 30 minutes or less) for tests on healthy volunteers.

[4] = Reported DCA concentration and clearance in rats (literature); assay type: in vivo, rat; details: oral 100 mg/kg vs. human i.v.
Method: Evans et al 1981 administered DCA orally, in 100 mg/kg doses, either once, or daily for seven days.

[5] = Reported DCA pharmacokinetics in dogs (literature); assay type: in vivo, dog; details: dogs vs. 0.5 hour in humans
Excerpt: Accordingly, dogs cannot be used as reliable models or predictors for the pharmacokinetic effects of DCA in humans.

serum lactate = assay: Serum/blood lactate concentration in human volunteers after intravenous DCA infusion; assay type: in vivo; details: for Serum lactate, baseline: before infusion; for Serum lactate, baseline / Serum lactate just before second infusion / Serum lactate 14 h after second infusion: mean ± SEM; for Serum lactate just before second infusion: second infusion 8 h later; for Level of statistical significance, (b) vs. placebo: just before second infusion; for Persistence of lactate reduction relative to DCA clearance: 60 mg/kg
Method: Eighteen human beings entered this study; all provided informed consent that was acceptable to an independent Institutional Review Board, which also approved the study design and toxicological coverage. The human subjects were all healthy, were fasted for 18 hours prior to the study infusions, and were all within 85% to 115% of ideal body weight, using actuarial tables published by the Metropolitan Life Insurance Company. Each received an accurately measured meal (late breakfast, 821 kcal total including 116 g of carbohydrate, 30 g of protein, and 32 g of fat).
as §1, §2, §3
Blood samples were collected into tubes containing sodium heparin, and spun at 64 G (i.e., 64 times normal gravity) for 10 minutes, to remove blood cells. The supernatant was then deproteinized, using 6% perchloric acid; various other agents, such as acetonitrile, could alternately be used if desired. The deproteinized liquid was then centrifuged again at 64 G for 10 minutes, and the supernatant was decanted and divided into 0.20 mL aliquots. At least one aliquot was stored at -40° C. as a backup in case checks were needed, while tests were run on other aliquots.
Blood samples were assayed for lactate concentration at a registered clinical laboratory (SmithKline Beckman, in Evansville, Ind.), using a commercial assay kit sold by Sigma Chemical Company (St. Louis, Mo.). This assay uses an enzymatic procedure involving lactate dehydrogenase; it adds glycine to the samples as a buffer, along with a standardized excess amount of NAD. The lactate dehydrogenase enzyme converts lactate to pyruvate, and the hydrogen atoms that are liberated by this reaction convert NAD to reduced NAD (NADH). The NADH absorbs ultraviolet light at 340 nm, and the level of absorbance (measured by a spectrophotometer) is directly proportional to the amount of NADH in the sample, and thus to the amount of lactate that was initially present in the sample.
In a second set of test subjects (18 total: 9 test subjects and 9 saline placebo controls), sodium DCA was administered in an identical manner, using a single 30-minute infusion, at a dosage of 60 mg/kg. […]

[6] = cited from earlier work
[7] = humans, cited from earlier work
[8] = tested on: pyruvate dehydrogenase enzyme complex; details: rats; Evans 1982; cited from earlier work
[9] = especially over prolonged periods, Stacpoole et al 1979; cited from earlier work
[10] = 100 + 50 group, 14 h after second infusion

O=C([O-])C(Cl)Cl.[Na+] [DCA, sodium dichloroacetate]
Half-life [1]: 1140 to 1440 min | Clearance rate of 30 mg/kg dose with vs. without prior DCA exposure ([2]; 30 mg/kg i.v., prior 60 mg/kg 8 hours earlier, FIG. 4): comparable | Clearance rate of 50 mg/kg dose after prior exposure vs. single 60 mg/kg dose ([2]; 50 mg/kg i.v., prior 100 mg/kg 8 hours earlier): similar | DCA clearance from blood ([2]; single 60 mg/kg i.v., by 6.5 hours): nearly all of the DCA had already been avidly cleared from the blood | Duration of transient sedation or sleepiness [3]: about 20 minutes | Transient sedation or sleepiness [3]: a number of subjects reported transient sedation or sleepiness | Inferred plasma concentration relative to that in human patients dosed intravenously [4]: about 1/10 | Half-life in dogs relative to humans [5]: about 40 times longer | Duration of blood lactate reduction (FIG. 3 legend) (serum lactate; 60 mg/kg as printed in legend): more than 8 hours | Persistence of reduction in serum lactate after the first infusion (serum lactate; 100 mg/kg followed by 50 mg/kg 8 hours later): more than 22 hours | Duration of lactate reduction (serum lactate; 100 mg/kg single i.v. infusion): > 8 h | Persistence of lactate reduction relative to serum DCA (serum lactate; 100 mg/kg single i.v. infusion, in words): persistent reduction in serum lactate levels which significantly outlasted the serum DCA concentrations | Serum lactate, baseline (serum lactate; 60 + 30 group (mg/kg)): 1.19 ± 0.24 mM | Serum lactate just before second infusion (serum lactate; 60 + 30 group (mg/kg)): 0.72 ± 0.15 mM | Serum lactate 14 h after second infusion (serum lactate; 60 + 30 group (mg/kg)): 0.94 ± 0.12 mM | Level of statistical significance, (c) vs. placebo (serum lactate; 60 + 30 group, 14 h after second infusion): 0.021 | Level of statistical significance, (b) vs. placebo (serum lactate; 60 + 30 group): 0.009 | Serum lactate, baseline (serum lactate; 100 + 50 group (mg/kg)): 0.84 ± 0.10 mM | Serum lactate just before second infusion (serum lactate; 100 + 50 group (mg/kg)): 0.39 ± 0.04 mM | Serum lactate 14 h after second infusion (serum lactate; 100 + 50 group (mg/kg)): 0.32 ± 0.08 mM | Level of statistical significance, (c) vs. 60 + 30 (serum lactate; [10]): 0.004 | Level of statistical significance, (c) vs. placebo (serum lactate; [10]): < 0.001 | Level of statistical significance, (b) vs. placebo (serum lactate; 100 + 50 group): < 0.001 | Time course of DCA concentration and lactate reduction (serum lactate; single 30 mg/kg i.v. infusion, in words, FIG. 1, 30 mg/kg): a peak of DCA concentration which rapidly dropped off, and a similar peak in lactate reduction which disappeared fairly rapidly; also recorded: closely paralleled (over time) the clearance of DCA from the blood | Duration of blood lactate reduction (serum lactate; single 30 mg/kg i.v. infusion, in words, 30 mg/kg): returned to normal levels within a few hours | Duration of blood lactate reduction (serum lactate; single 30 mg/kg i.v. infusion, in words, listed as NaDCA, 30 mg/kg): lasted only a few hours | Reversal of the decline in serum lactate levels (serum lactate; single 60 mg/kg i.v. infusion, at 6.5 hours and afterwards): no evidence of reversal of the decline in serum lactate levels | Persistence of lactate reduction relative to DCA clearance (serum lactate; single 60 mg/kg i.v. infusion, in words): significantly outlasted the persistence of serum DCA levels | Persistence of lactate reduction relative to DCA clearance (serum lactate; single 60 mg/kg i.v. infusion, in words, listed as NaDCA): lasted substantially longer and persisted even after substantially all of the DCA had been cleared from the patient's blood; also recorded: substantially outlasted the clearance of DCA from the circulation | Duration of reduction in plasma lactate after start of second infusion (serum lactate; two infusions eight hours apart): more than 12 hours | Duration of serum lactate reduction using two injections over 24 h (serum lactate; two injections, about 40 mg/kg DCA or more per injection): ≥ 24 h | Peak DCA concentration in liver tissue ([6]; oral 100 mg/kg, once or daily for seven days, Evans et al 1981): about 25 μg of DCA per gram of liver tissue | DCA concentration in the liver over time ([6]; rats, Evans 1982): declined rapidly with time | DCA clearance ([6]; rats, in words): fairly rapid | Half-life ([7]; Lukas et al 1980, Ribes et al 1979): 30 min | Half-life ([7]; Wells et al 1980): 31 min | Time to complete elimination ([7]; Wells et al 1980): ≤ 5 h | Clearance from circulating blood ([7]; in words): rapidly cleared | Activation of the pyruvate dehydrogenase enzyme complex over time [8]: dropped off rapidly with time | Toxic effects of oral administration [9]: may have toxic effects
